Laboratory results published in US9789181B2, “PAN-DR binding polypeptides and uses thereof” (Epimmune Inc., priority 2009, dated 2017).
pIC50: −log10 of the molar value. Where no end group is shown, it is not given here.

Experiments:
HLA DRB1 *0701 = HLA DRB1 *0701 (Homo sapiens, UniProt P01903+P01911, A100R/A102G/A103Q/D57E/D86V/E43K/F76Y/K127E/L162R/M171V/P40G/Q125H/Q99D/R33Q/R42Y/R54Q/S133A/S66F/T210M/V115G/Y107V/Y59L/Y89S); experiment: IC50nM to purified HLA | DRB1 *0701
Method: (§1) Table printed on a drawing sheet, FIG. 1 (contd.)
Head of the field: IC50nM to purified HLA | DRB1 *0701
(§2) First copying reader's note: Continued from the preceding sheet of FIG. 1; decimal commas are used, the analog names give the substituted residues and positions in PADRE, and some values are printed in italics or bold and some SEQ ID NOs bold and underlined without a legend on this sheet.
Where the first naming reader finds the target: head: IC50nM to purified HLA | DRB1 *0701

HLA DRB1 *0802 = HLA DRB1 *0802 (Homo sapiens, UniProt P01903+P01911, A100R/A103L/A169T/F76Y/H45Y/I96F/K41T/L162R/M171V/P40S/Q125H/Q178H/Q39Y/Q99D/R218S/R42G/S66Y/V115G/W38E); experiment: IC50nM to purified HLA | DRB1 *0802
Method: as §1
Head of the field: IC50nM to purified HLA | DRB1 *0802
as §2
Where the first naming reader finds the target: head: IC50nM to purified HLA | DRB1 *0802

HLA DRB1 *0404 = HLA DRB1 *0404 (Homo sapiens, UniProt P01903+P01911, A100R/A169T/F76Y/I96L/K127E/L162R/M171V/N62H/P40V/Q125Y/R42H/S133A/S149N/S66Y/V209L/W38E); experiment: IC50nM to purified HLA | DRB1 *0404
Method: as §1
Head of the field: IC50nM to purified HLA | DRB1 *0404
as §2
Where the first naming reader finds the target: head: IC50nM to purified HLA | DRB1 *0404

HLA DRB1 *0101 = HLA DRB1 *0101 (Homo sapiens, UniProt P01903+P01911, A100R/D57E/F55L/F60I/F76Y/I96L/L162R/M171V/P40L/Q125E/R42F/V115G/Y59C); experiment: IC50nM to purified HLA | DRB1 *0101
Method: as §1
Head of the field: IC50nM to purified HLA | DRB1 *0101
as §2
Where the first naming reader finds the target: head: IC50nM to purified HLA | DRB1 *0101

HLA DRB4 *0101 = HLA DRB4 *0101 (Homo sapiens, UniProt P01903+P13762, G164S); experiment: IC50nM to purified HLA | DRB4 *0101
Method: as §1
Head of the field: IC50nM to purified HLA | DRB4 *0101
as §2
Where the first naming reader finds the target: head: IC50nM to purified HLA | DRB4 *0101

HLA DRB1 *0401 = HLA DRB1 *0401 (Homo sapiens, UniProt P01903+P01911, A100K/A169T/F76Y/I96L/K127E/L162R/M171V/N62H/P40V/Q125Y/R42H/S133A/S149N/S66Y/V115G/V209L/W38E); experiment: IC50nM to purified HLA | DRB1 *0401
Method: as §1
Head of the field: IC50nM to purified HLA | DRB1 *0401
as §2
Where the first naming reader finds the target: head: IC50nM to purified HLA | DRB1 *0401

HLA DRB1 *1302 = HLA DRB1 *1302 (Homo sapiens, UniProt P01903+P01911, A100E/A169T/K41T/L162R/M171V/P40S/Q125H/Q178H/Q39Y/Q99D/R42S/S66N/T262R/V115G/W38E/Y61H); experiment: IC50nM to purified HLA | DRB1 *1302
Method: as §1
Head of the field: IC50nM to purified HLA | DRB1 *1302
as §2
Where the first naming reader finds the target: head: IC50nM to purified HLA | DRB1 *1302

HLA DRB1 *0405 = HLA DRB1 *0405 (Homo sapiens, UniProt P01903+P01911, A100R/A169T/D86S/F76Y/I96L/K127E/L162R/M171V/N62H/P40V/Q125Y/R42H/S133A/S149N/S66Y/V115G/V209L/W38E); experiment: IC50nM to purified HLA | DRB1 *0405
Method: as §1
Head of the field: IC50nM to purified HLA | DRB1 *0405
as §2
Where the first naming reader finds the target: head: IC50nM to purified HLA | DRB1 *0405

HLA DRB1 *1501 = HLA DRB1 *1501 (Homo sapiens, UniProt P01903+P01911); experiment: IC50nM to purified HLA | DRB1 *1501
Method: as §1
Head of the field: IC50nM to purified HLA | DRB1 *1501
as §2
Where the first naming reader finds the target: head: IC50nM to purified HLA | DRB1 *1501

HLA DRB5 *0101 = HLA DRB5 *0101 (Homo sapiens, UniProt P01903+Q30154); experiment: IC50nM to purified HLA | DRB5 *0101
Method: as §1
Head of the field: IC50nM to purified HLA | DRB5 *0101
as §2
Where the first naming reader finds the target: head: IC50nM to purified HLA | DRB5 *0101

HLA DRB1 *0901 = HLA DRB1 *0901 (Homo sapiens, UniProt P01903+P01911, A100R/A103E/D57H/D86V/F55Y/F60I/F76Y/I96F/K127E/L162R/M171V/P40D/Q125H/Q99R/R33Q/R42F/S133A/S66N/T210M/V115G/W38K/Y107V/Y59G/Y89S); experiment: IC50nM to purified HLA | DRB1 *0901
Method: as §1
Head of the field: IC50nM to purified HLA | DRB1 *0901
as §2
Where the first naming reader finds the target: head: IC50nM to purified HLA | DRB1 *0901

HLA DRB1 *1101 = HLA DRB1 *1101 (Homo sapiens, UniProt P01903+P01911, A100R/A169T/A87E/I96F/K41T/L162R/M171V/P40S/Q125H/Q178H/Q39Y/Q99D/R42S/S66Y/T262R/V115G/W38E); experiment: IC50nM to purified HLA | DRB1 *1101
Method: as §1
Head of the field: IC50nM to purified HLA | DRB1 *1101
as §2
Where the first naming reader finds the target: head: IC50nM to purified HLA | DRB1 *1101

HLA DRB1 *0301 = HLA DRB1 *0301 (Homo sapiens, UniProt P01903+P01911, A100K/A102G/A103R/A169T/F55Y/I96L/K41T/L162R/M171V/P40S/Q125H/Q178H/Q39Y/R42S/S66N/T106N/T262R/W38E/Y61H); experiment: IC50nM to purified HLA | DRB1 *0301
Method: as §1
Head of the field: IC50nM to purified HLA | DRB1 *0301
as §2
Where the first naming reader finds the target: head: IC50nM to purified HLA | DRB1 *0301

Sequence of HLA DRB1 *1101 (P01903 26-254 limits assumed, other chains not shown): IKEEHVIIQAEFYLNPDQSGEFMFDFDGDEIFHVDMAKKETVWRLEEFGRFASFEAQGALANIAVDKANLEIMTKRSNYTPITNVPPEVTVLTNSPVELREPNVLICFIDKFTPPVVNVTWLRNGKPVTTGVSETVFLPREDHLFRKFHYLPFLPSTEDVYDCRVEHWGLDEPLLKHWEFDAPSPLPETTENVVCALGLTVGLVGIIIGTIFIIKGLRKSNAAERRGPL
Sequence of HLA DRB1 *0301 (P01903 26-254 limits assumed, other chains not shown): as above
Sequence of HLA DRB4 *0101 (P01903 26-254 limits assumed): as the sequence (P01903 26-254 limits assumed, other chains not shown) above
Sequence of HLA DRB4 *0101 (P13762 whole entry G164S): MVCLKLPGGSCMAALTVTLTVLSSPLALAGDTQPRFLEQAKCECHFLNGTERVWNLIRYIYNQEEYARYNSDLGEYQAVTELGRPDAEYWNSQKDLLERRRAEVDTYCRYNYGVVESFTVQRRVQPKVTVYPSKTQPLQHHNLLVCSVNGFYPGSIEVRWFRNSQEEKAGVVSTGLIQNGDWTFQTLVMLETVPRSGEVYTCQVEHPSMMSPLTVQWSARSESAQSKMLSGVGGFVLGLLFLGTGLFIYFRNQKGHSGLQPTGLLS
Sequence of HLA DRB1 *1302 (P01903 26-254 limits assumed, other chains not shown): as the sequence (P01903 26-254 limits assumed, other chains not shown) above

Row | pIC50 (HLA DRB1 *0701) | pIC50 (HLA DRB1 *0802) | pIC50 (HLA DRB1 *0404) | pIC50 (HLA DRB1 *0101) | pIC50 (HLA DRB4 *0101) | pIC50 (HLA DRB1 *0401) | pIC50 (HLA DRB1 *1302) | pIC50 (HLA DRB1 *0405) | pIC50 (HLA DRB1 *1501) | pIC50 (HLA DRB5 *0101) | pIC50 (HLA DRB1 *0901) | pIC50 (HLA DRB1 *1101) | pIC50 (HLA DRB1 *0301) | Sequence
1 | 7.08 | 7.19 | 7.85 | 8.15 | 6.03 | 7.92 | 6.63 | 7.44 |  |  |  |  |  | AAAHFVAANTLKAEA [SEQ ID NO: 39]
2 |  |  | 8.28 | 8.16 | 6.14 | 8.12 | 6.00 | 7.96 | 8.00 | 7.80 | 7.46 | 7.36 |  | AAAHFVAAYTLKAEA [SEQ ID NO: 37]
3 |  | 7.66 |  | 8.29 | 6.17 | 8.19 | 5.96 |  | 7.70 | 7.74 | 7.36 | 7.28 |  | AAAHFVAAWTLKAEA [SEQ ID NO: 36]
4 |  | 7.80 | 8.55 | 8.60 | 6.48 | 8.42 | 6.08 | 8.01 | 7.25 | 8.17 | 7.39 | 7.35 | 6.77 | AAAEFVAAWTLKAAA [SEQ ID NO: 45]
5 | 7.01 | 7.62 | 8.39 |  |  | 8.51 | 5.94 | 7.57 |  | 7.32 | 7.36 | 7.42 | 6.87 | AAAEFVAAWTLHAAA [SEQ ID NO: 46]
6 | 6.82 | 7.62 | 8.15 | 8.31 |  | 8.28 |  | 7.57 | 7.05 |  | 7.40 | 7.55 | 6.60 | AAADFVAAWTLHAAA [SEQ ID NO: 41]
7 |  | 7.68 |  |  | 6.15 | 8.19 |  | 8.08 | 7.64 | 7.77 | 7.39 | 7.44 |  | AAAKFVAAWTLKAEA [SEQ ID NO: 35]
8 |  |  | 8.01 | 8.30 |  | 8.14 | 6.09 | 7.77 | 7.72 | 7.72 | 7.57 |  | 5.94 | AAAKFVAAWTLKADA [SEQ ID NO: 30]
9 | 6.74 | 7.85 | 8.28 | 8.32 |  | 8.35 |  | 7.68 | 7.72 |  | 7.49 | 7.40 | 6.54 | AAADFVAAYTLHAAA [SEQ ID NO: 42]
10 | 7.06 | 7.17 | 7.89 |  |  | 7.68 |  | 7.44 | 6.76 | 7.74 | 7.22 | 7.04 | 5.51 | AAAHFVAANTLKADA [SEQ ID NO: 34]
11 |  | 7.62 | 8.15 | 8.29 | 5.68 | 8.07 | 6.06 | 7.80 |  | 7.64 |  |  |  | AAAHFVAAWTLKADA [SEQ ID NO: 31]
12 | 6.71 | 7.36 | 8.07 | 8.11 |  | 8.18 | 6.73 |  | 6.24 | 7.10 | 7.09 |  | 6.14 | AAADFVAANTLHAAA [SEQ ID NO: 44]
13 | 6.85 | 7.72 | 8.59 | 8.21 | 6.88 | 8.68 | 5.70 | 7.85 | 7.30 |  | 7.74 | 7.32 |  | AAAEFVAAFTLHAAA [SEQ ID NO: 48]
14 | 7.32 |  | 8.02 | 8.27 |  | 7.96 |  |  | 7.96 | 7.77 | 7.51 |  |  | AAAHFVAAYTLKADA [SEQ ID NO: 32]
15 | 6.65 |  | 8.43 | 8.14 | 5.98 | 8.33 |  | 7.96 | 7.01 |  |  | 7.36 | 6.13 | AAADFVAAFTLHAAA [SEQ ID NO: 43]
16 | 6.79 | 7.89 | 8.49 | 8.41 | 6.35 | 8.64 | 5.84 | 7.77 | 8.16 | 7.28 | 7.55 | 7.57 | 6.84 | AAAEFVAAYTLHAAA [SEQ ID NO: 47]
17 | 7.08 |  | 8.02 | 8.17 | 6.02 | 7.82 | 6.23 | 7.72 | 7.43 |  | 7.52 | 7.12 |  | AAAHFVAAFTLKADA [SEQ ID NO: 33]
18 | 7.17 |  |  | 8.57 |  |  | 5.85 | 7.72 | 8.38 |  |  | 7.80 | 6.77 | AAANFVAAYTLHAAA [SEQ ID NO: 52]
19 | 6.71 | 7.77 | 8.40 | 8.15 | 5.81 | 8.29 | 5.40 | 7.52 | 7.19 |  |  | 7.72 | 6.48 | AAADFVAAWTLKAAA [SEQ ID NO: 40]
